{"source": "paper PMC4795788", "about": "“Finding Potent Sirt Inhibitor in Coffee: Isolation, Confirmation and Synthesis of Javamide-II (N-Caffeoyltryptophan) as Sirt1/2 Inhibitor” (PLoS ONE, 2016)", "assay_type_in_all_cases": "biochemical", "key": {"Sirt1": {"target": "T1, Sirt1 (Homo sapiens, UniProt Q96EB6)", "T1 construct": "human recombinant Sirt1 (Cayman Direct Fluorescent Screening Assay kit)", "T1 sequence (Q96EB6 2-747)": "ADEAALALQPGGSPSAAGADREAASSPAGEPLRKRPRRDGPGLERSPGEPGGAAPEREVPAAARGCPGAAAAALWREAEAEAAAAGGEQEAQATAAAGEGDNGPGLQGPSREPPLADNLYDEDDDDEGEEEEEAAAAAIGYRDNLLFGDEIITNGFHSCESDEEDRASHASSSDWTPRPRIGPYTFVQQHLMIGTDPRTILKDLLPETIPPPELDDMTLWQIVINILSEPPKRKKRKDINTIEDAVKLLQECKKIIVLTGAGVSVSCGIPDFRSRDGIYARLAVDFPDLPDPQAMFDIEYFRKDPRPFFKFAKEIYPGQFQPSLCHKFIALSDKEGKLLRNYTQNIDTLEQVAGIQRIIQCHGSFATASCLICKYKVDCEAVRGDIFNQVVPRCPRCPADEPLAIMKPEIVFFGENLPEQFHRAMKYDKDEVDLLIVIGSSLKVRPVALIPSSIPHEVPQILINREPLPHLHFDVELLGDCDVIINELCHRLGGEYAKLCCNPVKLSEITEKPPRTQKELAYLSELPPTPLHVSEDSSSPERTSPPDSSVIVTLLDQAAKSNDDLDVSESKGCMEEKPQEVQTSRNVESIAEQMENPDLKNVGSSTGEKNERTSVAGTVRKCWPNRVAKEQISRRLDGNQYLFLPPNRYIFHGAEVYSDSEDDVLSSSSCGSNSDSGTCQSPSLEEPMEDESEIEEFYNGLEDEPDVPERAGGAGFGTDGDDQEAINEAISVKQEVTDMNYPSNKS", "assay": "fluorescent deacetylase assay"}, "Sirt2": {"target": "T2, Sirt2 (Homo sapiens, UniProt Q8IXJ6)", "T2 sequence (Q8IXJ6 2-389)": "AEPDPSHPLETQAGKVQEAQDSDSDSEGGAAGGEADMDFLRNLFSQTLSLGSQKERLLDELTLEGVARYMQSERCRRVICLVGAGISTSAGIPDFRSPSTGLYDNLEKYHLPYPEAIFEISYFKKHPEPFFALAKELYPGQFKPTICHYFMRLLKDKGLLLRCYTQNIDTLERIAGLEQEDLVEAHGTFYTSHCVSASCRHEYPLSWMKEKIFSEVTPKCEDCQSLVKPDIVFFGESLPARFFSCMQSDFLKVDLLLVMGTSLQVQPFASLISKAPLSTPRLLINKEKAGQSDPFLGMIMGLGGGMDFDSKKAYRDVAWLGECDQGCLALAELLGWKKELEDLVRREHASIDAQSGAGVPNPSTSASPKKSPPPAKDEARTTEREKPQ", "assay": "fluorescent deacetylase assay, Lineweaver-Burk kinetics (IC50 […])"}, "Sirt3": {"target": "T3, Sirt3 (Homo sapiens, UniProt Q9NTG7)", "T3 construct": "human recombinant Sirt3 (Cayman Direct Fluorescent Screening Assay kit)", "T3 sequence (Q9NTG7 102-399)": "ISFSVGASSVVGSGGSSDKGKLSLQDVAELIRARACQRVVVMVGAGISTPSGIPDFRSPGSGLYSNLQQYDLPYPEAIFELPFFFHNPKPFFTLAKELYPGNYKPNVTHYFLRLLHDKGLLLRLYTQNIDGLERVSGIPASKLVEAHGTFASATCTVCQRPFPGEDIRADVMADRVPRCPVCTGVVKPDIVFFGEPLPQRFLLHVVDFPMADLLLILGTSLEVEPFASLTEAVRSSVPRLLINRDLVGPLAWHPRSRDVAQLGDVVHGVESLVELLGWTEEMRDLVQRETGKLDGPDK", "assay": "fluorescent deacetylase assay, % inhibition at […]"}}, "data": [{"smiles": "O=C(/C=C/c1ccc(O)c(O)c1)N[C@@H](Cc1c[nH]c2ccccc12)C(=O)O", "note": "[javamide-II, (E)-(3-(3,4-dihydroxyphenyl)acryloyl)tryptophan]", "values": [{"measurement": "IC50", "setting": "Sirt1", "value": 34, "unit": "µM"}, {"measurement": "Ki", "setting": "Sirt2", "value": 5.3, "unit": "µM"}, {"measurement": "inhibition at 60 µM", "setting": "Sirt3", "value": "50 ± 8.1", "unit": "%"}]}]}
